In US20110003760A1, “ABNORMAL PROTEIN REMOVING METHOD” (priority 2005, published 2011):

Tested on: trypsin-like proteasome activity in three-dimensional human skin model
Experiment: Proteasome activity in three-dimensional human skin model
Assay type: cell-based
Conditions: for proteasome activity compared to the sample not given any treatment: without UV irradiation
Protocol: Three-dimensional human skin models are widely used in safety evaluation and effectiveness evaluation as a simulated model of human skin. In this test, TESTSKIN (LSE-high) (Toyobo Co., Ltd.) was used as a three-dimensional human skin model.
A culture medium was added to the outer well of TESTSKIN (LSE-high) and cultured for 24 hours. UVA and UVB were irradiated at 10 J/cm^2 and 100 mJ/cm^2, respectively. UVB was irradiated for 2 minutes at a UV intensity of […] using FL20S-E-30/DMR (Clinical Supply Co., Ltd.) to achieve a total irradiation dose of 100 mJ/cm^2. UV intensity was measured using a UV MONITOR MS-211-I (Eiko Instruments Co., Ltd.).
Thereafter, the culture solution was changed and each agent was added by 100 μl onto the tissues in the assay ring, after which the medium was cultured for 36 hours. Thereafter, the tissues were collected and a tissue extraction solution (50 mM Tris-HCl (pH 7.5), 0.5% (Octylphenoxy) polyethoxyethanol (Sigma-Aldrich Corp.)) was added, and then the mixture was homogenized using a Teflon (registered trademark) homogenizer. The homogenized mixture was centrifuged for 30 minutes at 10,000×G to remove tissue fragments, and then dialyzed overnight in distilled water at 4° C. Thereafter, the dialyzed mixture was freeze-dried to remove water. A tissue extraction solution was added to obtain a ×20 concentrate, and this concentrate was used as a three-dimensional skin model extract sample.
Proteasome activity was measured using a known method (Hayashi, et al., Mechanisms of Aging and Development, Vol. 102, pp. 55-66, 1998) based on cell extract samples.
The specific method is as follows. For the matrix to measure trypsin-like proteasome activity, t-butyloxycarbonyl-L-leucyl-L-arginyl-L-arginyl-L-4-methyl-coumaryl-7-amide (Peptide Institute, Inc.) was used. A cell extract sample containing protein by an equivalent of 10 μg was added to 10.5 μl of a 100 μM matrix solution prepared with 100 mM Tris-HCl (pH 8.0), after which a cell extraction solution was added to a total volume of 50 μl. The obtained solution was treated for 30 minutes at 37° C., after which the fluorescence intensity of the separated 7-amine-4-methyl coumarin was measured at an excitation wavelength (Ex) of 380 nm and absorption waveform (Em) of 440 nm. The result was obtained for each sample type treated with each agent, as an “average ±standard error” calculated from the measured values of three samples.
Based on the above results, it is clear that Bletilla striata extract and silybin promote proteasome activity in a three-dimensional skin model in a manner dependent on the concentration. Accordingly, whether or not a combined use of Bletilla striata extract and silybin would synergistically promote proteasome activity was evaluated. Also, whether or not a combined use of silybin and soybean saponin, a substance known to have an action to promote proteasome activity, would synergistically promote proteasome activity was evaluated. As a result, regardless of whether or not UV light was irradiated, using silybin (3 μM) in combination with Bletilla striata extract (0.1%; final extract concentration of 0.001%), or using silybin (3 μM) in combination with soybean saponin (0.0005%), promoted proteasome activity synergistically compared to when a sample was treated with silybin (3 μM), Bletilla striata extract (0.1%; final extract concentration of 0.001%) or soybean saponin (0.0005%) alone, as far as promotion of proteasome activity in a three-dimensional skin model was concerned (FIG. 12).

[1] = FIG. 11, 3 μM, under UV irradiation
[2] = FIG. 11, 10 μM, under UV irradiation
[3] = FIG. 12, under UV irradiation, silybin 3 μM, Bletilla striata extract 0.1%, soybean saponin 0.0005%, alone or combined

Compound: COc1cc(C2Oc3cc([C@H]4Oc5cc(O)cc(O)c5C(=O)[C@@H]4O)ccc3OC2CO)ccc1O (stereo partly drawn) [Silybin, silybin]
- proteasome activity compared to the sample not given any treatment under UV irradiation (75%) [1]: 140%
- relative proteasome activity level [1]: 105%
- proteasome activity compared to the sample not given any treatment (FIG. 11, 3 μM): 145%
- proteasome activity compared to the sample not given any treatment under UV irradiation (75%) [2]: 170%
- relative proteasome activity level [2]: 128%
- proteasome activity compared to the sample not given any treatment (FIG. 11, 10 μM): 178%
- proteasome activity compared to the sample not given any treatment under UV irradiation (73%) [3]: 121%
- relative proteasome activity level [3]: 88%
- proteasome activity compared to the sample not given any treatment (FIG. 12, silybin 3 μM, Bletilla striata extract 0.1%, soybean saponin 0.0005%, alone or combined): 125%
